From patent publication US20250127905A1, “GLUTARIMIDE COMPOUND AND USE THEREOF” (MEDSHINE DISCOVERY INC., priority 2021, published 2025)
Structures can show the parent of a compound that is named as a salt.

What was measured:
IRAK4 = target: T1, IRAK4 (Homo sapiens, UniProt Q9NWZ3); assay: Target protein degradation effect in K562 IRAK4-HiBiT cells (Nano-Glo HiBiT); assay type: cell-based; conditions: incubated 16 to 18 hours
T1 construct: expressed in transfected cells; host or cells: K562 IRAK4-HiBiT cells
T1 sequence (Q9NWZ3 1-460): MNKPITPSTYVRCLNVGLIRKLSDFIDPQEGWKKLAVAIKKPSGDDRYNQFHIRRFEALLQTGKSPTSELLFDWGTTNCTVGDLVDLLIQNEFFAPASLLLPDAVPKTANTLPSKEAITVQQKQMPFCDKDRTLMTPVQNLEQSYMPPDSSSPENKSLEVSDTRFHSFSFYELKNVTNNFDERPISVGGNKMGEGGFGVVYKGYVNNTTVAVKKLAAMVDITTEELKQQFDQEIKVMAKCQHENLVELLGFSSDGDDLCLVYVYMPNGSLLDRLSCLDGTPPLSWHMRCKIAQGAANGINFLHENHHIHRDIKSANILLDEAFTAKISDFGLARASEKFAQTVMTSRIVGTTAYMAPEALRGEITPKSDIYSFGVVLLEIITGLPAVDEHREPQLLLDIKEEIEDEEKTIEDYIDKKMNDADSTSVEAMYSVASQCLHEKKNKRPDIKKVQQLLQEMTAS
Method: Experimental purpose: In this experiment, the degradation effect of the test compound on the target protein IRAK4 in K562 IRAK4-HiBiT cells was detected.
• Cells: K562 IRAK4-HiBiT cells • Culture media: RPMI 1640+10% FBS+2 mM GlutaMax+1 mM sodium pyruvate+penicillin/streptomycin • Positive control: 1000 nM; negative control: 0.1% DMSO
• (1). The compound to be tested in powder form was dissolved in DMSO to 10 mM as a storage concentration, and 9 μL of the 10 mM compound to be tested was manually pipetted to column 1 and column 13 of an LDV plate using a pipette; • (2). 6 μL of DMSO was added to columns 2 to 12 and 14 to 24 using Multidrop Combi; [0688](3). the compound to be tested was 3-fold diluted (3 μL+6 μL) from columns 1 to 11 and 13 to 23 using Bravo; • (4). 25 nL of compound solution (columns 1 to 24 of the LDV plate) was transferred to an assay plate using Echo according to the plate layout; • (5). 25 nL of 1 mM positive control solution was transferred to the assay plate as a 100% degradation control (i.e., LC, HPE) and 25 nL of DMSO was transferred to the assay plate as a 0% control (i.e., HC, ZPE) using Echo.
• (1). The cell culture medium was discarded, and the cells were washed once with DPBS, digested with trypsin, and counted to prepare a cell suspension of […]; • (2). 25 µL/well of cell suspension was added to the assay plate containing the compound to be tested using Multidrop Combi at medium speed; • (3). the assay plate containing cells was returned to an incubator with 5% CO2 at 37° C. and incubated for 16 to 18 hours.
• (1). 25 µL/well of assay reagent (NanoGlo lysis buffer+substrate+LgBit protein) was added to the assay plate using Multidrop Combi at high speed, and the plate was shaken for 10 minutes; • (2). the plate was centrifuged at 2000 rpm for 1 minute to remove air bubbles; • (3). the plate was read on Envision using US Luminescence detection method.
The inhibition rate (IR) of the test compound was calculated using the following formula: IR (%)=(RLU vehicle control−RLU compound)/(RLU vehicle control−RLU positive control)×100%, and the vehicle control is the blank control. The inhibition rates of compounds at different concentrations were calculated in Excel, and then XLFit software was used to plot inhibition curves and calculate relevant parameters, including minimum inhibition rate, maximum inhibition rate, and DC50.

[1] = Pharmacokinetic evaluation in mice, experimental operation A (CD-1); assay type: in vivo; conditions: CD-1 mice; for bioavailability / clearance / Vd / half-life: male, mouse, plasma; for bioavailability: IV 1 mg/kg, PO 10 mg/kg, read-out: Bioavailability F; for Vd: read-out: Apparent volume of distribution; for half-life: read-out: Elimination half-life (converted)
Excerpt: In this study, CD-1 or C57BL/6N male mice were selected as test animals, and LC/MS/MS method was used to quantify plasma concentrations of the test compound intravenously injected or intragastrically administered to mice at different time points, so as to evaluate the pharmacokinetic profile of the test drug in mice.
CD-1 mice (male, 20 to 35 g, 7 to 10 weeks old, Beijing Vital River) or C57BL/6N mice (male, 20 to 30 g, 7 to 10 weeks old, Beijing Vital River)
A clarified solution or suspension of the test compound was injected into CD-1 mice (overnight fasting) via the tail vein (vehicle: 10% DMSO/10% Solutol/80% H2O), or intragastrically administered into CD-1 mice (overnight fasting). For intravenous injection, blood was collected from the saphenous vein at 0 h (pre-administration) and 0.083 h, 0.25 h, 0.5 h, 1 h, 2 h, 4 h, 8 h, and 24 h after administration, and placed in an anticoagulant tube added with EDTA-K2. The mixture was thoroughly vortexed and mixed, and centrifuged at 3200 g for 10 minutes at 4° C. to obtain plasma. For oral administration, blood was collected from the saphenous vein at 0.25 h, 0.5 h, 1 h, 2 h, 4 h, 8 h, and 24 h after administration, and placed in an anticoagulant tube added with EDTA-K2 (Jiangsu Kangjian Medical Apparatus Co., Ltd.). The mixture was thoroughly vortexed and mixed, and centrifuged at 3200 g for 10 minutes at 4° C. to obtain plasma. Plasma concentrations were determined by LC-MS/MS method, and relevant pharmacokinetic parameters were calculated using Phoenix WinNonlin™ Version 6.3 (Pharsight, Mountain View, CA) pharmacokinetic software with non-compartmental model linear-log trapezoidal method.

[2] = Intragastric administration 10 mg/kg

Row | Structure (SMILES) | DC50 (IRAK4) | Maximum inhibition rate (IRAK4) | further results
1 | O=C1CCC(c2noc3c(NC(=O)CN4CCN(C[C@H]5CC[C@H](n6cc(NC(=O)c7cnn8ccc(N9CC%10CCC(C9)O%10)nc78)c(C(F)F)n6)CC5)CC4)cccc23)C(=O)N1 (stereo partly drawn) [Formate of WX018] | 9.11 nM | 97.79% | –
2 | O=C1CCC(c2coc3cc(NC(=O)CN4CCN(C[C@H]5CC[C@H](n6cc(NC(=O)c7cnn8ccc(N9C[C@H]%10C[C@@H]9CO%10)nc78)c(C(F)F)n6)CC5)CC4)ccc23)C(=O)N1 (stereo partly drawn) [Hydrochloride of WX002] | 24.3 nM | 56.72% | –
3 | O=C1CCC(c2coc3c(C#CCOC4CCN(C[C@H]5CC[C@H](n6cc(NC(=O)c7cnn8ccc(N9C[C@H]%10C[C@@H]9CO%10)nc78)c(C(F)F)n6)CC5)CC4)cccc23)C(=O)N1 (stereo partly drawn) [Hydrochloride of WX003] | 25.5 nM | 100.06% | Area under the drug-time curve (0-inf) [1, 2]: 4.83 µM·h; Peak concentration [1, 2]: 0.61 µM; Time to peak concentration [1, 2]: 4.0 h; Area under the drug-time curve (0-inf) ([1]; Intravenous injection 1 mg/kg): 1.72 µM·h; bioavailability [1]: 28.2%; clearance ([1]; Intravenous injection 1 mg/kg): 11.7 mL/min/kg; Vd ([1]; Intravenous injection 1 mg/kg): 1.71 L/kg; half-life ([1]; Intravenous injection 1 mg/kg): 104 min
4 | O=C1CCC(c2coc3c(NC(=O)CN4CCN(C[C@H]5CC[C@H](n6cc(NC(=O)c7cnn8ccc(N9C[C@H]%10C[C@@H]9CO%10)nc78)c(C(F)F)n6)CC5)CC4)cccc23)C(=O)N1 (stereo partly drawn) [Hydrochloride of WX006] | 12.9 nM | 97.11% | Area under the drug-time curve (0-inf) [1, 2]: 7.73 µM·h; Peak concentration [1, 2]: 1.73 µM; Time to peak concentration [1, 2]: 1.0 h; Area under the drug-time curve (0-inf) ([1]; Intravenous injection 1 mg/kg): 1.18 µM·h; bioavailability [1]: 65.6%; clearance ([1]; Intravenous injection 1 mg/kg): 16.8 mL/min/kg; Vd ([1]; Intravenous injection 1 mg/kg): 1.47 L/kg; half-life ([1]; Intravenous injection 1 mg/kg): 61.8 min
5 | O=C1CCC(c2coc3ccc4c(NC(=O)CN5CCN(C[C@H]6CC[C@H](n7cc(NC(=O)c8cnn9ccc(N%10C[C@H]%11C[C@@H]%10CO%11)nc89)c(C(F)F)n7)CC6)CC5)cccc4c23)C(=O)N1 (stereo partly drawn) [Hydrochloride of WX010] | 6.54 nM | 74.90% | –
6 | O=C1CCC(c2coc3c(NC(=O)C(F)(F)C4CCN(C[C@H]5CC[C@H](n6cc(NC(=O)c7cnn8ccc(N9C[C@H]%10C[C@@H]9CO%10)nc78)c(C(F)F)n6)CC5)CC4)cccc23)C(=O)N1 (stereo partly drawn) [Hydrochloride of WX016] | 34.2 nM | 112.11% | –
7 | O=C1CCC(c2noc3c(NC(=O)C(F)(F)C4CCN(C[C@H]5CC[C@H](n6cc(NC(=O)c7cnn8ccc(N9C[C@H]%10C[C@@H]9CO%10)nc78)c(C(F)F)n6)CC5)CC4)cccc23)C(=O)N1 (stereo partly drawn) [Hydrochloride of WX017] | 7.02 nM | 115.78% | –
8 | O=C1CCC(c2noc3c(CCCOC4CCN(C[C@H]5CC[C@H](n6cc(NC(=O)c7cnn8ccc(N9C[C@H]%10C[C@@H]9CO%10)nc78)c(C(F)F)n6)CC5)CC4)cccc23)C(=O)N1 (stereo partly drawn) [Hydrochloride of WX022] | 7.14 nM | 103.04% | –

Compounds with a lower DC50 (IRAK4), results first:

Row | DC50 (IRAK4) | Maximum inhibition rate (IRAK4) | Structure (SMILES) | further results
9 | 5.43 nM | 100.80% | O=C1CCC(c2noc3c(CCCN4CCN(C[C@H]5CC[C@H](n6cc(NC(=O)c7cnn8ccc(N9C[C@H]%10C[C@@H]9CO%10)nc78)c(C(F)F)n6)CC5)CC4)cccc23)C(=O)N1 (stereo partly drawn) [Hydrochloride of WX020] | –
10 | 4.29 nM | 85.62% | O=C1CCC(c2noc3ccc4c(NC(=O)CN5CCN(C[C@H]6CC[C@H](n7cc(NC(=O)c8cnn9ccc(N%10C[C@H]%11C[C@@H]%10CO%11)nc89)c(C(F)F)n7)CC6)CC5)cccc4c23)C(=O)N1 (stereo partly drawn) [Hydrochloride of WX014] | –
11 | 2.59 nM | 102.77% | O=C1CCC(c2noc3c(NC(=O)CN4CCC(CN5CCC(n6cc(NC(=O)c7cnn8ccc(N9C[C@H]%10C[C@@H]9CO%10)nc78)c(C(F)F)n6)CC5)CC4)cccc23)C(=O)N1 (stereo partly drawn) [Hydrochloride of WX021] | –
12 | 2.55 nM | 103.01% | O=C1CCC(c2noc3c(CC(=O)NC4CCN(C[C@H]5CC[C@H](n6cc(NC(=O)c7cnn8ccc(N9C[C@H]%10C[C@@H]9CO%10)nc78)c(C(F)F)n6)CC5)CC4)cccc23)C(=O)N1 (stereo partly drawn) [Formate of WX023] | –
13 | 1.37 nM | 109.35% | O=C1CCC(c2noc3c(NC(=O)CN4CCC(O[C@H]5CC[C@H](n6cc(NC(=O)c7cnn8ccc(N9C[C@H]%10C[C@@H]9CO%10)nc78)c(C(F)F)n6)CC5)CC4)cccc23)C(=O)N1 (stereo partly drawn) [WX024] | –
